Test results reported in patent US20090197867A1, “ENANTIOMERICALLY ENRICHED IMIDAZOAZEPINONE COMPOUNDS” (priority 2007, published 2009).

Columns and labels:
CIA mouse = assay: Suppression of arthritis development in CIA (active immunization); type: in vivo; settings: DBA1/J mice, oral dosing once daily, read-out: Arthritis Model Approx ED50, Active Immunization (CIA mouse)
Excerpt: Suppression of arthritis development in CIA. DBA1/J mice were immunized with bCII/CFA at day 0 then boosted at day 21 with bCII/IFA. Arthritis development was monitored over the course of study. The arthritis score is as follows: 0=normal paw, score of 1=1-2 digit inflamed paws; score of 2=3 digits or 1-2 digit+wrist or ankle inflamed, score of 3=hand+more than 2 digits inflamed; and score of 4=multiple digits (3-4)+important wrist or ankle inflammation.
(A) Partial therapeutic evaluation of compounds. Active compound was given by oral dosing once daily at the dose indicated from day 20 after induction of antibodies to collagen II but before disease development. (B) Full therapeutic evaluation of compound. Active compound was given after disease was developed (from day 7 after the second immunization). (C) X-ray analysis of mouse paws from full therapeutic CIA study. X-ray score is the index of measurement of combination of osteopenia, bone erosion and new bone formation. (D) Representative X-ray radiographs.

CAIA mouse = assay: Suppression of arthritis development in CAIA (passive immunization); type: in vivo; settings: BALB/c mice, once daily PO day 0 to day 7
Method: Suppression of arthritis development in CAIA. BALB/c mice were injected i.v. with 1 mg of anti-type II collagen antibody at day 0, and 3 days later 25 μg of LPS was injected i.p. with active compound and methotrexate (MTX) was given once daily PO from day 0 to day 7. Arthritis score and body weight was monitored over the course of study.

Row | SMILES | ED50 (CIA mouse) [mg/kg] | ED50 (CAIA mouse; Mus musculus, read-out: Arthritis Model Approx ED50, Passive Immunization (CAIA mouse)) [mg/kg] | activity in the CAIA model (arthritis score) (CAIA mouse)
1 | CCN1C(=O)N2Cc3cc(OC)cc(OC)c3[C@@H](C)C=C2C12CCN(Cc1cc(C)cc(C)c1)CC2 [ER-819762-01] | ~3 | 30 to 60 | 
2 | CCN1C(=O)N2Cc3cc(OC)cc(OC)c3[C@@H](C)C=C2C12CCN(Cc1cccn1C)CC2 [ER-819924-01] | 3 to 10 |  | 
3 | CCN1C(=O)N2Cc3cc(OC)cc(OC)c3[C@@H](C)C=C2C12CCN(Cc1cc(C)nn1C)CC2 [ER-819973-01] | 3 to 10 |  | 
4 | CN(Cc1cnc2nc(N)nc(N)c2n1)c1ccc(C(=O)N[C@@H](CCC(=O)O)C(=O)O)cc1 [methotrexate, reference compound] |  |  | not particularly active
